The results in this text go back to EP2762468A1, “2-aminopyridine derivatives as plant growth regulating compounds” (Syngenta Participations AG, priority 2013, dated 2014).

The test system of experiment [1] is French beans (Phaseolus vulgaris) of the variety Fulvio. As to the kind of experiment: Bean assay: elongation of the petiole of the second leaf. Format: in vivo. The following applies: five micro litres of test compound pipetted to the wound at the base of the second internode; measured fourteen days after application. On the procedure:
(§1) Two bioassays were developed in order to assay the activity of the compounds of the present invention. In the first assay, the activity of the compound was quantified in beans based on its effect on the elongation of the petiole of the second leaf. In the second assay, the compound's effect on the root growth of wheat was determined.
French beans (Phaseolus vulgaris) of the variety Fulvio were sown in 0.5 litres pots in a sandy loam without additional fertilizer. Plants grew under greenhouse conditions at 22/18°C (day/night) and 80% relative humility; light was supplemented […] 25 kLux. Plants were treated with test compounds eleven days after sowing, when the second internode was 2-5 mm long. Before application, the compounds were each dissolved in dimethyl sulfoxide and diluted in a mixture of lanolin-oil and acetone (1:2 ratio by volume). Five micro litres of the test compound was pipetted to the wound that was created after abscising the bract leaf from the base of the second internode. Fourteen days after application, the length of the petiole of the second leaf (measured from the base of the petiole to the base of the first leaflet) was determined in order to quantify the activity of the compounds.

Experiment [2] concerns the target T1, Arabidopsis BIN2 kinase (Uniprot Q39011) (Arabidopsis thaliana, UniProt Q39011).
T1 construct: made in house; host or cells: E. coli BL21
T1 sequence (Q39011 1-380): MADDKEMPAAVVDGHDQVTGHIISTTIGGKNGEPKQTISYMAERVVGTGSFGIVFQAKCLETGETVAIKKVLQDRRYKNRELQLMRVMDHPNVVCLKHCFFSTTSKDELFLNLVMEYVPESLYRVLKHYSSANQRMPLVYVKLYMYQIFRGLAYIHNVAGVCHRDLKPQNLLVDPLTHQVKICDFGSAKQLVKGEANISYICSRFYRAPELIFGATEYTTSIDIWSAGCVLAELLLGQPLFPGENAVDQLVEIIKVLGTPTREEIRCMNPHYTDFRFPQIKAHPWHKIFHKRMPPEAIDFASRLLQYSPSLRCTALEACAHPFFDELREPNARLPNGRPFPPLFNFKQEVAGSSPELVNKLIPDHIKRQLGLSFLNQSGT
As to the kind of experiment: In vitro assay for inhibition of plant GSK3/Shaggy-like kinase activity (ADP-Glo). Format: biochemical. The note with it: compounds at 5 µM; 5 µM ATP; myelin basic protein substrate; 1 h at 20°C; triplicate; read-out: inhibited the activity of His6-BIN2 relative to the solvent vehicle control. As for the experimental part:
Arabidopsis BIN2 kinase (Uniprot Q39011) was produced in E.coli BL21 as an N-terminal hexahistidine fusion protein. In vitro kinase assays were performed by incubating 50 ng His6-BIN2 protein with 5 µg myelin basic protein (Sigma-Aldrich) as substrate and 5 µM ATP as co-substrate in reaction buffer consisting of 40 mM Tris-HCl, 20 mM MgCl2 and 0.1mg/mL bovine serum albumin in a final reaction volume of 50 µl. Enzyme activity was assessed in the absence and presence of compounds (described in Tables A and B) at 5 µM by measuring the level of ADP produced after incubation for 1 h at 20°C using an enzyme-coupled bioluminescent assay (ADP-Glo, Promega Corp.). The experiment was performed in triplicate.
(In general: ADP-Glo first removes unused ATP, then detects ADP through luciferase.)

In experiment [3] the test system is Wheat (Triticum aestivum) seeds of the variety Arina. As to the kind of experiment: Wheat assay: plant (root and shoot) area and curliness of the roots. Format: in vivo. The note with it: seeds sown in pouches with compound solution; twelve days after sowing/application. On the procedure:
as §1
The test compounds were dissolved in small volumes of dimethyl sulfoxide and diluted to the appropriate concentration with water. Wheat (Triticum aestivum) seeds of the variety Arina were sown in pouches (14.7 × 13.2 cm) containing 10 mL of the appropriate compound solution. The pouches were stored at 17 °C for three days to enable the seeds to germinate. Plants were then stored at 5°C. Twelve days after sowing/application, plants were removed from the pouches and scanned. The effect of the compounds was quantified by determining plant (root and shoot) area and curliness of the roots (curliness is an indicator of brassinosteroid-type activity).

Each structure is given as a SMILES string.

On to `COC(=O)CCC(=O)Nc1cc(Cl)ccn1` [Compound A1, methyl 4-[(4-chloro-2-pyridyl)amino]-4-oxo-butanoate], for which the “increase of the length of the petiole of the second leaf” value in experiment [1] is on record as at least 10%. In addition, the inhibition at 5 µM in experiment [2] was at least 20%.

For `COC(=O)CCC(=O)Nc1cc(C(F)(F)F)ccn1` [Compound A2], in experiment [2], the inhibition at 5 µM was at least 20%.

Regarding `COC(=O)CCC(=O)Nc1cc(C#N)ccn1` [Compound A3, methyl 4-[(4-cyano-2-pyridyl)amino]-4-oxo-butanoate], the inhibition at 5 µM in experiment [2] was at least 20%.

Regarding `COC(=O)CCC(=O)Nc1cc([N+](=O)[O-])ccn1` [Compound A5], in experiment [2], the inhibition at 5 µM is at least 20%.

`COC(=O)CCC(=O)Nc1cc(I)ccn1` [Compound A6]: the inhibition at 5 µM in experiment [2] is at least 20%.

On to `N#Cc1ccnc(NC(=O)CCC(=O)O)c1` [Compound A7, 4-[(4-cyano-2-pyridyl)amino]-4-oxo-butanoic acid], for which the inhibition at 5 µM in experiment [2] is at least 20%.

As for `O=C(O)CCC(=O)Nc1cc(C(F)(F)F)ccn1` [Compound A8], the inhibition at 5 µM in experiment [2] is at least 20%.

Turning to `COC(=O)CCC(=O)Nc1cc(Br)ccn1` [Compound A9], in experiment [2], the inhibition at 5 µM was at least 20%.

As for `O=C1CCC(=O)N1c1cc(C(F)(F)F)ccn1` [Compound B1, 1-[4-(trifluoromethyl)-2-pyridyl]pyrrolidine-2,5-dione], the “increase of the length of the petiole of the second leaf” value in experiment [1] is recorded as at least 10%. In addition, the inhibition at 5 µM in experiment [2] is at least 20%. For the same molecule, in experiment [3], the “curliness of the roots (indicator of brassinosteroid-type activity)” value is recorded as “curly root phenotype”; the “reduction of the plant (root and shoot) area” value was at least 5%.
